These results are taken from patent US20140086839A1, “QUINOLONE ANALOGS FOR TREATING AUTOIMMUNE DISEASES” (Tel HaShomer Medical Research Infrastructure and Services …, priority 2011, published 2014).

The nature of data set [1]: XTT cell viability of PHA-stimulated human PBMCs from healthy subjects. Type of data set: cell-based. As to conditions: PHA 20 μg/ml, read-out: maximal effect on viability of human PBMCs (decrease). As to the method: FIG. 6 is a histogram depicting the effect of CX-5461 on viability of human PBMCs. Human PBMCs were plated in DMEM+10% FCS+P/S+Q and 20 μg/ml PHA (400,000 cell/well) in the presence of increased concentrations of CX-5461 (50-500 nM) for 72 hours. Cells cultured with PHA alone served as controls. After incubation cell viability was determined by XTT assay;
PBMCs ([…]) from normal, healthy, subjects were plated in the presence of PHA (20 μg/ml) with elevated concentrations of CX-5461 (50-500 nM) for 72 hours. Cells plated in absence of CX-5461 served as controls.

The subject of data set [2] is MOG-induced EAE. In words: MOG-induced EAE, CX-5461 prophylactic treatment initiated at induction phase. Type of data set: in vivo. As to conditions: for Cumulative disease score / Disease onset / Maximal clinical score: 9 days. As to the method: (§1) EAE was induced in female C57BL/6 mice, 8 weeks of age, by subcutaneous immunization to the flank of emulsion (1:1 ratio volume/volume) containing […] peptide dissolved in phosphate-buffered saline (PBS) (at a concentration 2 mg/ml) and 0.5 mg Mycobacterium Tuberculosis H37Ra (Difco, Detroit, Mich.) in […] incomplete Freund's adjuvant (Sigma, St. Louis, Mo.). Pertussis toxin 200 ng/mouse (dissolved in […] PBS (List Biological Laboratories, Campbell, Calif.) was injected intra-peritoneal on the day of immunization and again two days later. Mice were monitored daily for clinical signs of EAE, scored as follows: 1-flaccid tail; 1.5—hind limb weakness; 2—paralyzed hind limbs and poor righting ability; 2.5—forelimb weakness, paralyzed hind limbs, paralyzed tail; 3—four limbs paralysis, inability to right; 4—quadriplegia; 5.0—moribund or death of the animal after preceding clinical disease. Animal reaching a score of 4 were scarified using CO2. Mice were kept in an SPF (Specific Pathogen Free) environment. Animal breeding and maintenance and all experimental protocols were performed in accordance with the Israeli Council for Animal Care guidelines and all experiments were approved by Sheba IRB Animal Care Ethical Committee.
EAE was induced in female C57Bl/6J female mice (8 weeks old) as described above. Treatment with CX-5461 was initiated on the day of induction and continued till the clinical signs of EAE appeared in the control animal group (In 2 out of the 7 mice clinical signs of EAE appeared). CX-5461 was administered orally to each animal; the following doses of CX-5461 in 0.2 ml of vehicle were used: 12.5 mg/kg (n=6 mice), 25 mg/kg (n=6 mice) and 50 mg/kg (n=7 mice) in 0.2 ml of vehicle. Vehicle treated mice served as controls (n=7 mice). Treatment continued for 9 days post induction, until the first sign of EAE (grade 1) appeared in the vehicle animal group (in 2 out of 7 mice). Mice were monitored daily for clinical signs of EAE up to 42 days post induction.

For data set [3], the system named is MOG-induced EAE. In words: MOG-induced EAE, CX-5461 treatment initiated at clinical onset. It is filed as in vivo. How it is done:
as §1
EAE was induced in mice as described in Example 6, hereinabove.
EAE was induced in female C57/6J female mice as described above. Treatment with CX-5461 was administered orally in 0.2 ml of vehicle with the following concentrations: 12.5 mg/kg/d (n=11 mice) and 25.0 mg/kg/d (n=8 mice). Vehicle treated mice served as controls (n=9 mice). CX-5461 treatment was initiated from the day of disease onset (score 0.5 or 1.0) for the following 14 days. The day of disease onset was evaluated for each animal daily.

The subject of data set [4] is neural progenitor cells (NPCs). The experiment in a line: XTT cell viability assay of neuronal progenitor cells. Type of data set: cell-based, mice. The conditions noted are these: 20 nM, 72 hours. As to the method:
(§2) FIG. 8 is a histogram depicting the effects of CX-5461 on viability of neuronal progenitor cells (NPCs). Mouse NPCs were plated in neurospheres medium containing basic FGF and EGF at 20 ng/ml each (26,000 cell/well) in the presence of increased concentrations of CX-5461 (20-500 nM) for 72 hours. Cells cultured without CX-5461 served as controls. Following incubation cell viability was determined by XTT assay;
(§3) NPCs derived from the subventricular zone of the lateral ventricle of adult mice were allowed to proliferate in the presence of increased concentrations of CX-5461 (20 nM to 500 nM) for 72 hours, and cell viability was tested using XTT assay.
For orientation: Formazan colour is commonly taken as a measure of viable cells.

Experiment in data set [5]: as above
As to conditions: read-out: decrease in NPC cell viability. Type of data set: cell-based, mice. How it is done: as §2, §3

The nature of data set [6]: XTT cell viability assay of PHA-stimulated mouse splenocytes. Type of data set: cell-based. As to the method:
FIG. 5 is a histogram depicting the effect of CX-5461 on viability of mouse splenocytes. Mouse splenocytes were plated in DMEM+10% FCS+P/S+Q and 10 μg/ml PHA (250,000 cell/well) in the presence of increased concentrations of CX-5461 (50-4000 nM) for 72 hours. Cells cultured with PHA alone served as controls. Following incubation cell viability was determined by XTT assay;
Cells viability was assessed by the 2,3 bis[2-Methoxy-4-nitro-5-sulfophenyl]-2H-tetrazolium-5-carboxanilide (XTT) as say (Biological Industries, Kibbutz Beit Hemeek, Israel) which measures the reduction of a tetrazolium component (XTT) into soluble formazan product by the mitochondria of viable cells. The intensity of the dye obtained is proportional to the number of metabolic active cells. Mouse splenocytes were plated in presence of PHA ([…]) and elevated concentrations of CX-5461 (50-4000 nM) for 72 hours. Cells plated in absence of CX-5461 served as controls. Following incubation, cell viability was measured by 2,3-bis-(2-methoxy-4-nitro-5-sulfophenyl)-2H-tetrazolium-5-carboxanilide (XTT) assay according to manufacturer's instructions (Biological Industries, Kibbutz Beit Hemeek, Israel). The intensity of the dye obtained is proportional to the number of metabolic active cells.

[7] abbreviates: 12.5 mg/kg/day oral from day of EAE induction.
The mark [8] stands for this setting: 25.0 mg/kg/day oral from day of EAE induction.
The mark [9] stands for this setting: 12.5 mg/kg/day oral from disease onset, 14 days.
[10] abbreviates: 25 mg/kg/day oral from disease onset.

SMILES strings stand for the structures.

Regarding `Cc1cnc(CNC(=O)c2c(=O)c3ccc(N4CCCN(C)CC4)nc3n3c2sc2ccccc23)cn1` [CX-5461, 2-(4-methyl-1,4-diazepan-1-yl)-N-((5-methylpyrazin-2-yl)methyl)-5-oxo-5H-benzo[4,5]thiazolo[3,2-a][1,8]naphthyridine-6-carboxamide], the cytotoxicity at 72 h, 50 nM stood at 35% in data set [1]; 30% in data set [5] (mouse, 50 nM); 27% in data set [6] (50 nM, read-out: decrease in cell viability of splenocyte cells). The Cumulative disease score in data set [2] (setting [7]) was found to be 16.25 ± 3.94; in data set [2] (setting [8]) it was 14.1 ± 3.5; in data set [3] (setting [9]), 18.59 ± 4.26. In addition, the Disease onset in data set [2] (setting [7]) is listed as 20.83 ± 1.36 days p.i; in data set [2] (setting [8]) it was 23.1 ± 1.2 days p.i. The figures for the Maximal clinical score in data set [2] (setting [7]) and in data set [2] (setting [8]) were 2.83 ± 0.49 and 3.3 ± 1.0, respectively. Further, in data set [2] (50 mg/kg/day oral, days of treatment post-induction, mean), the “time to death (toxicity)” value was 7.6 ± 0.5 days. Besides, the toxic signs entry in data set [2] (50 mg/kg/day oral, since day 5 of treatment) was “change in the color and brightness of their fur, loss of weight and change in behavior”. The “delay of EAE onset versus vehicle-control group” value in data set [2] (all CX-5461 treated groups, not dependent on concentration) is reported as 10 days. Moreover, the “Maximal EAE score” value in data set [3] (setting [9]) was found to be 2 ± 0.47. Further, the survival entry in data set [3] (setting [9]) was “all the animals survived”. The same compound returned an EAE score in data set [3] (setting [10]) of 0.88±0.18. In addition, in data set [3] (setting [10]), the toxic effects entry is “change in their fur color and brightness and loss of weight”. In addition, in data set [3] (25 mg/kg/day oral from disease onset, all mice died), the “time to death (toxic effects)” value came to 10.1 ± 0.5 days. Further, the “effect on NPCs viability” value in data set [4] was “no effect”. The cytotoxicity at 72 h in data set [5] (mouse, 100, 250 and 500 nM) is roughly 50%; in data set [6] (500 nM and higher concentrations, read-out: decrease in cell viability of splenocyte cells (maximal)) it was 97 to 100%.
